Results as given in patent US10336732B2, “1-heterocyclyl isochromanyl compounds and analogs for treating CNS disorders” (Sunovion Pharmaceuticals Inc., priority 2015, dated 2019).

Tested on: GABA (non-selective)
Assay: In vitro radioligand binding assay, GABA (non-selective), [3H]GABA
Settings: rat cerebral cortex membranes
Method: Certain compounds were tested by in vitro binding assays using standard procedures. […] These receptors and assays are well known to those skilled in the art, as exemplified by the following: Abramovitz, M. et al. (2000), Biochem. Biophys. Acta., 1483: 285-293 (EP4, IP (PGI2)); Aharony, D. et al. (1993), Mol. Pharmacol., 44: 356-363 (NK2); Ardati, A. et al. (1997), Mol. Pharmacol., 51: 816-824 (NOP (ORL1)); Bignon, E. et al. (1999), J. Pharmacol. Exp. Ther. 289: 742-751 (CCK1 (CCKA)); Bloomquist, B. T. et al. (1998), Biochem. Biophys. Res. Commun., 243: 474-479 (GAL2); Brockhaus, M. et al. (1990), Proc. Natl. Acad. Sci. U.S.A., 87: 3127-3131 (TNF-α); Brown, G. B. (1986), J. Neurosci., 6: 2064-2070 (Na+ channel (site 2)); Buchan, K. W. et al. (1994), Brit. J. Pharmacol., 112: 1251-1257 (ETA); Cesura, A. M. et al. (1990), Mol. Pharmacol., 37: 358-366 (MAO-A); Choi, D. S. et al. (1994), FEBS Lett., 352: 393-399 (5-HT2B); Clark, A. F. et al. (1996), Invest. Ophtalmol. Vis. […]

Fc1ccc2c(c1)[C@H]([C@@H]1CCCN1)OCC2 [Compound I-5, (2S)-2-((R)-7-fluoroisochroman-1-yl)pyrrolidine]
GABA percent inhibition of specific binding: 57%
